Among the data in patent US9604975B2, “Indolyl-pyridone derivatives having checkpoint kinase 1 inhibitory activity” (Vernalis (R&D) Ltd., priority 2009, dated 2017) are IC50, EC50 and survival values, retold here.

For one experiment, the target named is T1, CHK1 (Homo sapiens, UniProt O14757).
T1 construct: His; purchased Invitrogen
T1 sequence (O14757 1-476): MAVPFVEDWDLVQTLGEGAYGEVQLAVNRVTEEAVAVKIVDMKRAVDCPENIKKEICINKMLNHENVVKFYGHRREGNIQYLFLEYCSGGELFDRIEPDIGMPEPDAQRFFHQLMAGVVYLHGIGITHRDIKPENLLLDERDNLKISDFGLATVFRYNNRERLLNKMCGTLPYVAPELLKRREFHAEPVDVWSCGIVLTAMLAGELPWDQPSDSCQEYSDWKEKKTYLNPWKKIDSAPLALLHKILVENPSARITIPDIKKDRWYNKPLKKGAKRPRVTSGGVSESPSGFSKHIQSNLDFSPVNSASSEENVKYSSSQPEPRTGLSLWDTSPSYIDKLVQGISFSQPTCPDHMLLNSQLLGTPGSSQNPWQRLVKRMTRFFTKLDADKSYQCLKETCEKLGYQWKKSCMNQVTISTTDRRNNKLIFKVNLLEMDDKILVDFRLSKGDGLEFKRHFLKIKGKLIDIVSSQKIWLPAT
In words: CHK1 Enzyme Assay (phosphorylation of Chktide peptide, 33P-ATP filter assay). The settings on record: 12.5 nM His-CHK1, 0.01 mM ATP, 40 minutes at 30° C.; read-out: CHK1 Enzyme Activity (IC50 range). The experiment is classed as biochemical. Summed up:
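His-CHK1 (12.5 nM) phosphorylating 14.8 μM Chktide with 0.01 mM ATP plus 33P-γ-ATP, in 50 mM Hepes-NaOH pH 7.5 with 0.1 mg/mL BSA. Incubated with inhibitor for 40 min at 30 °C. Stopped with phosphoric acid; phosphopeptide captured on filter and counted by scintillation.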

The test system of the next experiment is HT29 cells. As to the kind of experiment: CHK1 Cellular Assay - Gemcitabine EC50 Assay. The experiment is classed as cell-based. The following applies: for EC50: HT29 cells, in the presence of gemcitabine at 10 nM, 72 hours, SRB staining, read-out: CHK1 Cellular Activity (EC50 range). The method, then: The gemcitabine EC50 assay was developed as a rapid method for screening CHK1 inhibitors to determine their relative cell activity. This assay utilises a feature of the effect of CHK1 inhibitors on gemcitabine toxicity. In the absence of a CHK1 inhibitor, gemcitabine acts predominantly as an anti-metbolite and therefore induces very little cell death, even at high concentrations. This can be as high as 70-80% survival at concentrations in excess of 1 μM. However, in the presence of a CHK1 inhibitor, the mechanism of action of gemcitabine switches to a more classical cytotoxic mode of action. For example, the fraction of cells surviving can be reduced to around 30% and below. Concentrations of gemcitabine can be selected that in the absence of a CHK1 inhibitor, have no effect on cell survival but in the presence of a CHK1 inhibitor are highly cytotoxic. 10000 HT29 cells were plated per well of a 96 well plate and allowed to attach at 37° C. in a 5% CO2 humidified incubator for 18 hours. CHK1 inhibitors were then titrated in the presence of 10, 15 and 20 nM gemcitabine for 72 hours and the EC50 determined by staining with sulforhodamine B (SRB) and determining the absorbance at 540 nm.

As to `O=C(Nc1c[nH]c(=O)c(-c2cc3ccccc3[nH]2)c1)c1cnn(Cc2ccccc2)c1` [Example 20, 1-Benzyl-1H-pyrazole-4-carboxylic acid [5-(1H-indol-2-yl)-6-oxo-1,6-dihydro-pyridin-3-yl]-amide], the IC50 on CHK1 is < 100 nM. Besides, in the experiment on HT29 cells, the concentration for a half-maximal effect (EC50) was 100 to 500 nM.
For the compound `Cc1ccc(Cn2cc(C(=O)Nc3c[nH]c(=O)c(-c4cc5cc(CN6CCCCC6)ccc5[nH]4)c3)cn2)cc1` [Example 38, 1-(4-Methyl-benzyl)-1H-pyrazole-4-carboxylic acid [6-oxo-5-(5-piperidin-1-ylmethyl-1H-indol-2-yl)-1,6-dihydro-pyridin-3-yl]-amide], the IC50 on CHK1 was < 100 nM. Moreover, the concentration for a half-maximal effect (EC50) in the experiment with HT29 cells is 100 to 500 nM.
For `O=C(Nc1c[nH]c(=O)c(-c2cc3cc(CN4CCC(F)CC4)ccc3[nH]2)c1)c1cnn(Cc2ccccc2)c1` [Example 49, 1-Benzyl-1H-pyrazole-4-carboxylic acid {3-[5-(4-fluoro-piperidin-1-ylmethyl)-1H-indol-2-yl]-6-oxo-1,6-dihydro-pyridin-3-yl}-amide] the same measures were < 100 nM and < 100 nM.
On to `O=C(Nc1c[nH]c(=O)c(-c2cc3cc(CN4CCCCC4)ccc3[nH]2)c1)c1cnn(Cc2ccccc2)c1` [Example 52, 1-Benzyl-1H-pyrazole-4-carboxylic acid [6-oxo-5-(5-piperidin-1-ylmethyl-1H-indol-2-yl)-1,6-dihydro-pyridin-3-yl]-amide], for which, at CHK1, the IC50 was < 100 nM. Moreover, the EC50 with HT29 cells was < 100 nM.
Turning to `C[C@@H]1CN(Cc2ccc3[nH]c(-c4cc(NC(=O)c5cnn(Cc6ccccc6)c5)c[nH]c4=O)cc3c2)C[C@H](C)O1` [Example 71, 1-Benzyl-1H-pyrazole-4-carboxylic acid {5-[5-(cis-2,6-dimethyl-morpholin-4-ylmethyl)-1H-indol-2-yl]-6-oxo-1,6-dihydro-pyridin-3-yl}-amide], on CHK1, the IC50 was < 100 nM. For the same compound, in the experiment on HT29 cells, the half-maximal effective concentration (EC50) was < 100 nM.
For the compound `CC1CCN(Cc2ccc3[nH]c(-c4cc(NC(=O)c5cnn(Cc6ccccc6)c5)c[nH]c4=O)cc3c2)CC1` [Example 78, 1-Benzyl-1H-pyrazole-4-carboxylic acid {5-[5-(4-methyl-piperidin-1-ylmethyl)-1H-indol-2-yl]-6-oxo-1,6-dihydro-pyridin-3-yl}-amide], on CHK1, the IC50 is < 100 nM. The EC50 with HT29 cells is < 100 nM.
Regarding `CC(c1ccccc1)n1cc(C(=O)Nc2c[nH]c(=O)c(-c3cc4cc(CN5CCC(F)CC5)ccc4[nH]3)c2)cn1` (stereo not shown) [Example 87, 1-(1-Phenyl-ethyl)-1H-pyrazole-4-carboxylic acid {5-[5-(4-fluoro-piperidin-1-ylmethyl)-1H-indol-2-yl]-6-oxo-1,6-dihydro-pyridin-3-yl}-amide], the IC50 on CHK1 is < 100 nM. Besides, the half-maximal effective concentration (EC50) with HT29 cells is < 100 nM.
Turning to `CN(C)CC(C)(C)COc1ccc2[nH]c(-c3cc(NC(=O)c4cnn(Cc5ccccc5)c4)c[nH]c3=O)cc2c1` [Example 120, 1-Benzyl-1H-pyrazole-4-carboxylic acid {5-[5-(3-dimethylamino-2,2-dimethyl-propoxy)-1H-indol-2-yl]-6-oxo-1,6-dihydro-pyridin-3-yl}-amide], the IC50 at CHK1 was < 100 nM. The EC50 in the experiment with HT29 cells was < 100 nM.
As to `C[C@@H]1CN(Cc2ccc3[nH]c(-c4cc(NC(=O)c5cnn([C@H](C)c6ccccc6)c5)c[nH]c4=O)cc3c2)C[C@H](C)O1` [Example 166], on CHK1, the IC50 is < 100 nM. Further, the EC50 in the experiment on HT29 cells was < 100 nM.
Turning to `C[C@H]1CCCCN1Cc1ccc2[nH]c(-c3cc(NC(=O)c4cnn(Cc5ccccc5)c4)c[nH]c3=O)cc2c1` [Example 171, 1-Benzyl-1H-pyrazole-4-carboxylic acid {5-[5-((S)-2-methyl-piperidin-1-ylmethyl)-1H-indol-2-yl]-6-oxo-1,6-dihydro-pyridin-3-yl}-amide], on CHK1, the IC50 was < 100 nM. In addition, the EC50 with HT29 cells was < 100 nM.
For the compound `C[C@@H]1CCCCN1Cc1ccc2[nH]c(-c3cc(NC(=O)c4cnn(Cc5ccccc5)c4)c[nH]c3=O)cc2c1` [Example 173, 1-Benzyl-1H-pyrazole-4-carboxylic acid {5-[5-((R)-2-methyl-piperidin-1-ylmethyl)-1H-indol-2-yl]-6-oxo-1,6-dihydro-pyridin-3-yl}-amide], at CHK1, the IC50 was < 100 nM. The EC50 with HT29 cells was < 100 nM.
Take `CCN(Cc1ccc2[nH]c(-c3cc(NC(=O)c4cnn(Cc5ccccc5)c4)c[nH]c3=O)cc2c1)CC(C)(C)CN(C)C` [Example 176, 1-Benzyl-1H-pyrazole-4-carboxylic acid [5-(5-{[(3-dimethylamino-2,2-dimethyl-propyl)-ethyl-amino]-methyl}-1H-indol-2-yl)-6-oxo-1,6-dihydro-pyridin-3-yl]-amide]: on CHK1, the IC50 is < 100 nM. Moreover, in the experiment with HT29 cells, the EC50 fell in the range of 100 to 500 nM.
For the compound `C[C@@H]1CCC[C@H](C)N1Cc1ccc2[nH]c(-c3cc(NC(=O)c4cnn(Cc5ccccc5)c4)c[nH]c3=O)cc2c1` [Example 177, 1-Benzyl-1H-pyrazole-4-carboxylic acid {5-[5-(cis-2,6-dimethyl-piperidin-1-ylmethyl)-1H-indol-2-yl]-6-oxo-1,6-dihydro-pyridin-3-yl}-amide], the 50% inhibitory concentration (IC50) on CHK1 was < 100 nM. The EC50 with HT29 cells was < 100 nM.
Consider `CCN(CC)CC(C)(C)COc1ccc2[nH]c(-c3cc(NC(=O)c4cnn(Cc5ccccc5)c4)c[nH]c3=O)cc2c1` [Example 178, 1-Benzyl-1H-pyrazole-4-carboxylic acid {5-[5-(3-diethylamino-2,2-dimethyl-propoxy)-1H-indol-2-yl]-6-oxo-1,6-dihydro-pyridin-3-yl}-amide], for which the IC50 on CHK1 was < 100 nM. In addition, in the experiment on HT29 cells, the concentration giving a half-maximal response (EC50) was < 100 nM.
Regarding `CN(C)CC(C)(C)Oc1ccc2[nH]c(-c3cc(NC(=O)c4cnn(Cc5ccccc5)c4)c[nH]c3=O)cc2c1` [Example 179, 1-Benzyl-1H-pyrazole-4-carboxylic acid {5-[5-(2-dimethylamino-1,1-dimethyl-ethoxy)-1H-indol-2-yl]-6-oxo-1,6-dihydro-pyridin-3-yl}-amide], the concentration for half-maximal inhibition (IC50) at CHK1 was < 100 nM. Besides, in the experiment on HT29 cells, the 50% effective concentration (EC50) was < 100 nM.
Consider `CC(C)(COc1ccc2[nH]c(-c3cc(NC(=O)c4cnn(Cc5ccccc5)c4)c[nH]c3=O)cc2c1)CN1CCCC1` [Example 180, 1-Benzyl-1H-pyrazole-4-carboxylic acid {5-[5-(2,2-dimethyl-3-pyrrolidin-1-yl-propoxy)-1H-indol-2-yl]-6-oxo-1,6-dihydro-pyridin-3-yl}-amide], for which the IC50 on CHK1 was < 100 nM. The EC50 in the experiment on HT29 cells was < 100 nM.
With `CC(C)(COc1ccc2[nH]c(-c3cc(NC(=O)c4cnn(Cc5ccccc5)c4)c[nH]c3=O)cc2c1)CN1CCCCC1` [Example 185, 1-Benzyl-1H-pyrazole-4-carboxylic acid {5-[5-(2,2-dimethyl-3-piperidin-1-yl-propoxy)-1H-indol-2-yl]-6-oxo-1,6-dihydro-pyridin-3-yl}-amide], on CHK1, the IC50 is < 100 nM. Further, in the experiment on HT29 cells, the concentration giving a half-maximal response (EC50) is < 100 nM.
As to `CCN(CC)CC1(COc2ccc3[nH]c(-c4cc(NC(=O)c5cnn(Cc6ccccc6)c5)c[nH]c4=O)cc3c2)CC1` [Example 186, 1-Benzyl-1H-pyrazole-4-carboxylic acid {5-[5-(1-diethylaminomethyl-cyclopropylmethoxy)-1H-indol-2-yl]-6-oxo-1,6-dihydro-pyridin-3-yl}-amide], the IC50 on CHK1 was < 100 nM. For the same compound, the EC50 in the experiment on HT29 cells was < 100 nM.
As to `Nc1ccn([C@@H]2O[C@H](CO)[C@@H](O)C2(F)F)c(=O)n1` [gemcitabine, reference compound], the survival in the experiment with HT29 cells (gemcitabine in the absence of a CHK1 inhibitor, concentrations in excess of 1 μM) is listed as 70-80%.
